Experimental data: ChEMBL document CHEMBL3992491, “Discovery, structure-activity relationship studies, and anti-nociceptive effects of N-(1,2,3,4-tetrahydro-1-isoquinolinylmethyl)benzamides as novel opioid receptor agonists” (Eur J Med Chem, 2017)
Activity calls are given as the source filed them. The rule behind the calls is not given here.

Assays:
Mu-type opioid receptor [1] = target: T1, Mu-type opioid receptor (Homo sapiens, UniProt P35372); test: Agonist activity at human MOR expressed in HEK293 cells assessed as inhibition of forskolin-induced adenylyl cyclase-mediated cAMP accumulation after 30 mins by HTRF assay; format: functional, cell-based
T1 sequence (P35372 whole entry): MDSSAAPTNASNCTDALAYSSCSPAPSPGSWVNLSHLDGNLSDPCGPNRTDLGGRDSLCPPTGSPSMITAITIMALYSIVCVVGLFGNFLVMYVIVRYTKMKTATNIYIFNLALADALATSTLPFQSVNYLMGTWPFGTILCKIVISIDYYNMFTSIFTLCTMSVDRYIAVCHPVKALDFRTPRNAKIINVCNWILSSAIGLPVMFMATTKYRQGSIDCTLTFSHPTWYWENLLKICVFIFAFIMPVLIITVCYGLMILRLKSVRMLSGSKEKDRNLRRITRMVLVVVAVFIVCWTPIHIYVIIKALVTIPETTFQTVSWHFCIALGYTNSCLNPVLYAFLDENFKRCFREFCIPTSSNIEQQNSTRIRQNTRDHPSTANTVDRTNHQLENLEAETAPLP

[2] = target: Delta-type opioid receptor (Homo sapiens, UniProt P41143); test: Agonist activity at human DOR expressed in HEK293 cells assessed as inhibition of forskolin-induced adenylyl cyclase-mediated cAMP accumulation after 30 mins by HTRF assay; format: functional, cell-based
Delta-type opioid receptor, sequence (P41143 whole entry): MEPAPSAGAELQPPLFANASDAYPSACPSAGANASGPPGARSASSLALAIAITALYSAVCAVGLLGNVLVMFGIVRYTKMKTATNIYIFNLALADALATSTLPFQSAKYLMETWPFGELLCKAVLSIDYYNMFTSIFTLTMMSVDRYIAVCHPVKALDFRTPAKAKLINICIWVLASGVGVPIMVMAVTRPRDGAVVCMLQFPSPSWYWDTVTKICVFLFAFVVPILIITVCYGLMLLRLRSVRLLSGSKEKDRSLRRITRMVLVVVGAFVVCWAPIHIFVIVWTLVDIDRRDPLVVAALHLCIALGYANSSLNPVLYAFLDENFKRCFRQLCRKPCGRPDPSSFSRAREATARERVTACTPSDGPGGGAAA

[3] = target: T2, Kappa-type opioid receptor (Homo sapiens, UniProt P41145); test: Agonist activity at human KOR expressed in HEK293 cells assessed as inhibition of forskolin-induced adenylyl cyclase-mediated cAMP accumulation after 30 mins by HTRF assay; format: functional, cell-based
T2 sequence (P41145 whole entry): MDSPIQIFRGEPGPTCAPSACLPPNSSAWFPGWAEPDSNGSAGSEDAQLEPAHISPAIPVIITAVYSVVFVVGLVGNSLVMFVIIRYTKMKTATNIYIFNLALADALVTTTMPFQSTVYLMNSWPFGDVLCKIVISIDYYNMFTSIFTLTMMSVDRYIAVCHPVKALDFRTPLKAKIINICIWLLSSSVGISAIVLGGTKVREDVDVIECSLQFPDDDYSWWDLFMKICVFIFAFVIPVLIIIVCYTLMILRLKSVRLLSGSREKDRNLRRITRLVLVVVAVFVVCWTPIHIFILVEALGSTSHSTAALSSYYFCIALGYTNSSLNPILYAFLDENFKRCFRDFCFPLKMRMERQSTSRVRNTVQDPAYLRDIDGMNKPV

Mu-type opioid receptor [4] = target: T1, Mu-type opioid receptor; test: Displacement of [3H]naloxone from recombinant human MOR expressed in HEK cell membranes incubated for 60 mins
[5] = Drug uptake in […] mouse plasma at 3 mg/kg, iv measured after 0.8 hrs by LC-MS/MS analysis; format: ADME, organism-based
[6] = Drug uptake in […] mouse brain at 3 mg/kg, iv measured after 0.8 hrs by LC-MS/MS analysis; format: ADME, organism-based; details: read-out: Drug uptake
[7] = Ratio of drug level in brain to plasma in […] mouse at 3 mg/kg, iv measured after 0.8 hrs; format: ADME, organism-based; details: read-out: BPR
Mu-type opioid receptor [8] = target: T1, Mu-type opioid receptor; test: Agonist activity at myc-tagged MOR (unknown origin) expressed in mouse AtT-20 cells harboring GIRK1/GIRK2 channels assessed as stimulation of membrane potential hyperpolarization at 1 uM by FLIPR assay; format: cell-based
Mu-type opioid receptor [9] = target: T1, Mu-type opioid receptor; test: Agonist activity at myc-tagged MOR (unknown origin) expressed in mouse AtT-20 cells harboring GIRK1/GIRK2 channels assessed as membrane potential hyperpolarization at 1 uM in presence of naloxone by FLIPR membrane potential; format: cell-based
Mus musculus [10] = test: Antinociceptive activity in B6 mouse assessed as AUC of thermal withdrawal effect at 3 mg/kg, iv measured at every 10 mins for 1 hr by tail flick assay; format: functional, organism-based
Mus musculus [11] = test: Antinociceptive activity in iv dosed B6 mouse assessed as increase in tail flick latency at 3 mg/kg, iv measured at every 10 mins for 1 hr in presence of opioid antagonist naloxone; format: functional, organism-based
Mus musculus [12] = test: Antinociceptive activity in iv dosed B6 mouse assessed as increase in tail flick latency at 3 mg/kg, iv measured at every 10 mins for 1 hr; format: functional
[13] = target: T2, Kappa-type opioid receptor; test: Agonist activity at human KOR expressed in HEK293 cells assessed as inhibition of forskolin-induced adenylyl cyclase-mediated cAMP accumulation at 1 uM after 30 mins in presence of KOR antagonist nor-binaltorphimine by HTRF assay; format: functional, cell-based

Row | Compound | IC50 (Mu-type opioid receptor [1]) [nM] | IC50 ([2]; hek293) | IC50 [3] [nM] | Imax [3] [%] | Imax (Mu-type opioid receptor [1]) [%] | Ki (Mu-type opioid receptor [4]) [nM] | also measured
1 | COc1ccc(C(=O)NCC2NCCc3ccccc32)cc1 (configuration not stated) | 1580 | Not Active | 50 | 21.8 |  |  | 
2 | CCCCN1CCc2ccccc2C1CNC(=O)c1ccc(C)cc1 (configuration not stated) | 1330 | Not Active | 780 | 24.1 | 69.3 |  | 
3 | Cc1ccc(C(=O)NCC2NCCc3ccccc32)cc1C (configuration not stated) | 290 | Not Active | 8930 | 27 |  | 36.4 | 
4 | CCc1ccc(C(=O)NCC2NCCc3ccccc32)cc1 (configuration not stated) | 310 | Not Active | 570 | 29 | 63.9 | 4.65 | 
5 | O=C(NCC1NCCc2ccccc21)c1ccc(OC(F)(F)F)cc1 (configuration not stated) | 1220 |  | 260 | 38.2 |  |  | Imax [2]: 22.7%; IC50 ([2]; read-out: IC50): 40 nM
6 | O=C(NCC1c2ccccc2CCN1S(=O)(=O)c1ccc(Br)cc1OC(F)(F)F)C1CCCCC1 (configuration not stated) |  |  |  |  |  |  | concentration at 0.8 h [5]: 1290 ng/mL; concentration at 0.8 h [6]: 1440 ng/g; Kp at 0.8 h [7]: 1.1
7 | Cc1ccc(C(=O)NCC2c3ccccc3CCN2CCCl)cc1 (configuration not stated) | 200 | Not Active | 2940 | 30 | 67.8 |  | 
8 | CCc1ccc(C(=O)NCC2c3ccccc3CCN2C)cc1 (configuration not stated) | 3280 |  | 490 | 26.3 | 61.9 | 2.27 | Imax [2]: 22.1%; IC50 ([2]; read-out: IC50): 190 nM
9 | O=C(NCC1NCCc2ccccc21)c1cccc(Cl)c1 (configuration not stated) | 2030 |  | 1120 | 26.9 | 78.2 |  | Imax [2]: 21.1%; IC50 ([2]; read-out: IC50): 170 nM
10 | C[C@@H](NC(=O)[C@@H](N)Cc1ccc(O)cc1)C(=O)NCC(=O)N(C)[C@@H](Cc1ccccc1)C(=O)NCCO |  |  |  |  | 82.4 |  | 
11 | O=C(NCC1NCCc2ccccc21)c1ccc(Cl)cc1 (configuration not stated) | 220 |  | 90 | 35.1 |  |  | Imax [2]: 24.1%; IC50 ([2]; read-out: IC50): 4180 nM
12 | Cc1ccc(C(=O)NCC2c3ccccc3CCN2C)cc1 (configuration not stated) | 650 | Not Active | 140 | 27.1 | 72.4 | 5.28 | 
13 | O=C(NCC1NCCc2ccccc21)c1ccc(Cl)c(Cl)c1 (configuration not stated) | 230 | Not Active | 810 | 27.5 |  | 54.3 | 
14 | Cc1ccc(C(=O)NCC2c3ccccc3CCN2C)cc1C (configuration not stated) | 80 | Not Active | 80 | 34.6 | 69.3 | 30.8 | Activity (Mu-type opioid receptor [8]): 20%; Activity (Mu-type opioid receptor [9]): inactive; concentration at 0.8 h [5]: 1460 ng/mL; concentration at 0.8 h [6]: 7420 ng/g; Kp at 0.8 h [7]: 5.1; AUC (Mus musculus [10]): 268 min.sec; Activity (Mus musculus [11]): inactive
15 | Cc1cccc(C(=O)NCC2NCCc3ccccc32)c1 (configuration not stated) | 1270 | Not Active | 140 | 26.6 | 68.3 |  | 
16 | CN1CCc2ccccc2C1CNC(=O)c1ccc(Cl)c(Cl)c1 (configuration not stated) | 50 | Not Active | 440 | 28.3 | 69.5 | 6.91 | Activity (Mu-type opioid receptor [8]): 20%; Activity (Mu-type opioid receptor [9]): inactive; concentration at 0.8 h [5]: 2610 ng/mL; concentration at 0.8 h [6]: 11700 ng/g; Kp at 0.8 h [7]: 4.5; AUC (Mus musculus [10]): 371 min.sec; ED50 (Mus musculus [12]): 1.06 mg/kg; Activity (Mus musculus [11]): inactive; Activity [13]: inactive
17 | O=C(NCC1NCCc2ccccc21)c1ccc(F)cc1 (configuration not stated) | 830 |  | 18600 | 38.9 |  |  | Imax [2]: 22%; IC50 ([2]; read-out: IC50): 40 nM
18 | Cc1ccc(C(=O)NCC2NCCc3ccccc32)cc1 (configuration not stated) |  |  |  |  |  | 6.47 | 
